Data taken from patent publication US9181265B2, “Substituted 2,3-dihydro-1H-benzo[a]pyrano[2,3-c]phenazines as anti-angiogenic and anti-cancer agents” (UNIVERSITE CATHOLIQUE DE LOUVAIN, priority 2010, dated 2015).
Where two headings read alike, the source gives them in different places.

Columns and labels:
[1] = test system: Human umbilical vein endothelial cells (HUVEC); assay: MTT test of overall cell growth, endothelial cells, normoxic or hypoxic conditions; type: cell-based; conditions: for Selectivity: if u.t.d., ratio of activity at 100 μM
Protocol: (§1) MTT tests were performed in order to rapidly, i.e. within 3 days, measure the effect of compounds of this invention on the overall cell growth. The test measured the number of metabolically active living cells that were able to transform the yellow product 3-(4,5-dimethylthiazol-2-yl)-2,5-diphenyl tetrazolium bromide (herein referred as MTT) into the blue product formazan dye by mitochondrial reduction. The amount of formazan obtained at the end of the experiment, measured by means of a spectrophotometer (Plate Reader Victor X4 Microplate reader (Perkin Elmer), is directly proportional to the number of living cells. Optical density determination thus enabled a quantitative measurement of the effect of the investigated compounds under control conditions (normoxia) as compared to the hypoxic conditions (0.1 or 1% O2) and/or untreated conditions.
(§2) Human umbilical vein endothelial cells (HUVEC) and six human cancer cell lines were used in the MTT tests. These cancer cell lines cover five histological cancer types including cervix (SiHa), breast (MCF-7 and MDA-MB231), prostate (PC3), glioma (U373), and colorectal (LoVo) cancers.
(§3) To perform the assay, cells were allowed to grow in 96-well microplates with a flat bottom following addition of an amount of 100 μl of cell suspension per well with 4,500 cells/well. Each cell line was seeded in its appropriate culture medium. HUVEC were cultured in a specific endothelial cell growth medium (ECACC, Sigma); SiHa cells in Glutamax-containing DMEM with 4.5 g/1 glucose (Invitrogen) supplemented with 10% Foetal Bovine Serum (PAA) and 1% penicillin+streptomycin mix (Invitrogen); MCF-7, MDA-MB-231, PC3, and LoVo cells in Glutamax-containing RPMI supplemented with 10% Foetal Bovine Serum (PAA) and 1% penicillin+streptomycin mix (Invitrogen) and U373 cells in Glutamax-containing DMEM (Invitrogen) with 5% Foetal Bovine Serum (PAA) and 1% penicillin+streptomycin mix (Invitrogen).
(§4) The detailed experimental procedure was the following: after a 24-hour period of incubation at 37° C., the culture medium was replaced by 100 μl of fresh medium in which the tested compound was previously dissolved, at the following concentrations: 10^−8 M, 5.10^−8, 10^−7, 5.10^−7, 10^−6, 5.10^−6, 10^−5, 5.10^−5 and 10^−[…]. Each experiment was performed in sestuplicates (6 times).
(§5) Cells were then incubated under normoxia in a Binder incubator (the O2 level corresponding to the concentration in the ambient air), or in a Ruskin hypoxia workstation under either 0.1% O2 (v/v) or 1% O2 (v/v). Under both conditions, the atmosphere was humidified and the CO2 concentration was fixed at 5 vol. %.
(§6) After 72 hours of incubation at 37° C. under normoxic or hypoxic conditions, with or without the compound to be tested, the medium was replaced by 100 μl of HBSS (without phenol red) containing MTT at a concentration of 0.5 or 1 mg/ml. The micro-wells were subsequently incubated during 3 hours and a half at 37° C. and centrifuged at 1300 rpm during 10 minutes. Medium was removed and formazan crystals formed were dissolved in 100 μl DMSO. The micro-wells were shaken for 5 minutes and read on a spectrophotometer at wavelengths of 570 nm (maximal formazan absorbance).
(§7) For each experimental condition, the mean optical density was calculated, allowing the determination of the percentage of living cells in comparison to the control.

[2] = test system: MDA-MB-231; assay: MTT test of overall cell growth, MDA-MB-231 breast cancer cells, normoxia or hypoxia; type: cell-based, human; conditions: for Selectivity: MDA-MB-231, IC50 (normoxia)/IC50 (hypoxia 1% O2), if u.t.d., ratio of activity at 100 μM
Protocol: as §1, §2, §3, §4, §5, §6, §7

[3] = test system: MCF-7; assay: MTT test of overall cell growth, MCF-7 breast cancer cells, normoxia or hypoxia; type: cell-based, human; conditions: for Selectivity: MCF-7, IC50 (normoxia)/IC50 (hypoxia 1% O2), if u.t.d., ratio of activity at 100 μM
Protocol: as §1, §2, §3, §4, §5, §6, §7

[4] = test system: PC3; assay: MTT test of overall cell growth, PC3 prostate cancer cells, normoxia or hypoxia; type: cell-based, human; conditions: for Selectivity: PC3, IC50 (normoxia)/IC50 (hypoxia 1% O2), if u.t.d., ratio of activity at 100 μM
Protocol: as §1, §2, §3, §4, §5, §6, §7

[5] = test system: LoVo; assay: MTT test of overall cell growth, LoVo colorectal cancer cells, normoxia or hypoxia; type: cell-based, human; conditions: for Selectivity: IC50 (normoxia)/IC50 (hypoxia 1% O2), if u.t.d., ratio of activity at 100 μM
Protocol: as §1, §2, §3, §4, §5, §6, §7

[6] = test system: siHa; assay: MTT test of overall cell growth, SiHa cervix cancer cells, normoxia or hypoxia; type: cell-based, human; conditions: for Selectivity: IC50 (normoxia)/IC50 (hypoxia 1% O2), if u.t.d., ratio of activity at 100 μM
Protocol: as §1, §2, §3, §4, §5, §6, §7

[7] = test system: U373; assay: MTT test of overall cell growth, U373 glioma cells, normoxia or hypoxia; type: cell-based, human; conditions: for Selectivity: U373, IC50 (normoxia)/IC50 (hypoxia 1% O2), if u.t.d., ratio of activity at 100 μM
Protocol: as §1, §2, §3, §4, §5, §6, §7

[8] = IC50 (normoxia)/IC50 (hypoxia 0.1%)
[9] = IC50 (normoxia)/IC50 (hypoxia 1%)
[10] = hypoxia 1% O2, 72 h, read-out: IC50 (μM) Hypoxia 1% O2
[11] = normoxia, 72 h, read-out: IC50 (μM) Normoxia
[12] = Homo sapiens, 72 h, hypoxia 0.1% O2, 72 h, read-out: IC50 (μM) Hypoxia 0.1%
[13] = Homo sapiens, 72 h, hypoxia 1% O2, 72 h, read-out: IC50 (μM) Hypoxia 1%
[14] = Homo sapiens, 72 h, normoxia, 72 h, series compared with hypoxia 0.1%, read-out: IC50 (μM) Normoxia
[15] = Homo sapiens, 72 h, normoxia, 72 h, series compared with hypoxia 1%, read-out: IC50 (μM) Normoxia
[16] = Homo sapiens, MDA-MB-231, hypoxia 1% O2, 72 h, read-out: IC50 (μM) Hypoxia 1% O2
[17] = Homo sapiens, MDA-MB-231, normoxia, 72 h, read-out: IC50 (μM) Normoxia
[18] = Homo sapiens, MCF7, MCF-7, hypoxia 1% O2, 72 h, read-out: IC50 (μM) Hypoxia 1% O2
[19] = Homo sapiens, MCF7, MCF-7, normoxia, 72 h, read-out: IC50 (μM) Normoxia
[20] = Homo sapiens, PC-3, PC3, hypoxia 1% O2, 72 h, read-out: IC50 (μM) Hypoxia 1% O2
[21] = Homo sapiens, PC-3, PC3, normoxia, 72 h, read-out: IC50 (μM) Normoxia
[22] = Homo sapiens, hypoxia 1% O2, 72 h, read-out: IC50 (μM) Hypoxia 1% O2
[23] = Homo sapiens, normoxia, 72 h, read-out: IC50 (μM) Normoxia
[24] = Homo sapiens, U373 MG, U373, hypoxia 1% O2, 72 h, read-out: IC50 (μM) Hypoxia 1% O2
[25] = Homo sapiens, U373 MG, U373, normoxia, 72 h, read-out: IC50 (μM) Normoxia

| IC50 [2, 16] [µM] | IC50 [2, 17] [µM] | IC50 [3, 18] [µM] | IC50 [3, 19] [µM] | IC50 [4, 20] [µM] | IC50 [4, 21] [µM] | IC50 [5, 22] [µM] | IC50 [5, 23] [µM] | SMILES | Selectivity [1, 8] | Selectivity [1, 9] | Selectivity [2] | Selectivity [3] | Selectivity [4] | Selectivity [5] | Selectivity [6] | Selectivity [7] | IC50 [1, 12] [µM] | IC50 [1, 13] [µM] | IC50 [1, 14] [µM] | IC50 [1, 15] [µM] | further results |
| --- | --- | --- | --- | --- | --- | --- | --- | --- | --- | --- | --- | --- | --- | --- | --- | --- | --- | --- | --- | --- | --- |
| – | – | – | – | – | – | – | – | CC1CCC2C(C1)c1c(c3ccccc3c3nc4ccc(C(=O)NC(CO)Cc5ccccc5)cc4nc13)OC2(C)C (mixture of isomers) [Compound 17′] | 230 | 16 | 5.40 | 1.37 | 1.31 | 1.64 | 9.50 | 8.67 | – | – | – | – | IC50 ([1]; hypoxia 0.1% O2, 72 h, read-out: IC50 (μM) Hypoxia 0.1%): 0.07 µM; IC50 ([1]; hypoxia 1% O2, 72 h, read-out: IC50 (μM) Hypoxia 1%): 0.36 µM; IC50 ([1]; normoxia, 72 h, series compared with hypoxia 0.1%, read-out: IC50 (μM) Normoxia): 17 µM; IC50 ([1]; normoxia, 72 h, series compared with hypoxia 1%, read-out: IC50 (μM) Normoxia): 5.72 µM; IC50 ([2]; MDA-MB-231, hypoxia 1% O2, 72 h, read-out: IC50 (μM) Hypoxia 1% O2): 11.1 µM; IC50 ([2]; MDA-MB-231, normoxia, 72 h, read-out: IC50 (μM) Normoxia): 59.9 µM; IC50 ([3]; MCF-7, hypoxia 1% O2, 72 h, read-out: IC50 (μM) Hypoxia 1% O2): 12.5 µM; IC50 ([3]; MCF-7, normoxia, 72 h, read-out: IC50 (μM) Normoxia): 17.2 µM; IC50 ([4]; PC3, hypoxia 1% O2, 72 h, read-out: IC50 (μM) Hypoxia 1% O2): 11.6 µM; IC50 ([4]; PC3, normoxia, 72 h, read-out: IC50 (μM) Normoxia): 15.2 µM; IC50 [5, 10]: 11.4 µM; IC50 [5, 11]: 18.8 µM; IC50 [6, 10]: 10.7 µM; IC50 [6, 11]: 102 µM; IC50 ([7]; U373, hypoxia 1% O2, 72 h, read-out: IC50 (μM) Hypoxia 1% O2): 1.34 µM; IC50 ([7]; U373, normoxia, 72 h, read-out: IC50 (μM) Normoxia): 11.6 µM |
| 1.27 | 30.3 | 1.45 | 8.07 | 1.31 | 14.7 | 1.31 | 9.69 | C[C@H]1CC[C@H]2[C@H](C1)c1c(c3ccccc3c3nc4cc(C(=O)N5CCOCC5)ccc4nc13)OC2(C)C (racemic) [Compound 12] | 58 | 14 | 23.81 | 5.56 | 11.23 | 7.38 | 17.50 | 75.00 | 0.14 | 0.4 | 8.27 | 5.65 | IC50 [6, 22]: 1.13 µM; IC50 [6, 23]: 19.8 µM; IC50 [7, 24]: 0.14 µM; IC50 [7, 25]: 10.6 µM |
| 1.31 | 44.4 | 1.45 | 11.3 | 1.41 | 15.3 | 1.21 | 10.6 | C[C@H]1CC[C@H]2[C@H](C1)c1c(c3ccccc3c3nc4ccc(C(=O)N5CCOCC5)cc4nc13)OC2(C)C (racemic) [Compound 12′] | 105 | 29 | 33.85 | 7.78 | 10.86 | 8.75 | 62.07 | 15.00 | 0.04 | 0.14 | 4.24 | 4.14 | IC50 [6, 22]: 1.17 µM; IC50 [6, 23]: 72.6 µM; IC50 [7, 24]: 0.61 µM; IC50 [7, 25]: 9.08 µM |
